Assay results: patent US9315522B2, “Antibacterial compounds” (JANSSEN SCIENCES IRELAND UC, priority 2012, dated 2016)
Converted amounts (≈) assume the structure as drawn. Where two headings read alike, the source gives them in different places.

Experiments:
S. aureus = assay: Antibacterial susceptibility testing, IC90 determination with 10% human serum (STA + 10% HS); assay type: cell-based, Staphylococcus aureus; conditions: human serum at final concentration of 10%; for IC90: Staphylococcus aureus, read-out: STA + 10% HS (361.169) IC90
Procedure, shortened: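 Broth microdilution in Mueller-Hinton broth with 10% human serum, 5×10^5 CFU/ml S. aureus, two-fold compound dilutions (typically 63 to 0.49 μM), 1.25% DMSO, 16-20 h at 35° C. Growth read fluorometrically with resazurin (ex 540/em 590 nm); IC90 in μg/ml is the 90% growth-inhibitory concentration.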

[1] = In vivo pharmacokinetic and oral bioavailability in mouse; set-up: species or system male Swiss mice; conditions: for Vdz: i.v.; for half-life: read-out: Half life (t1/2) (converted); for clearance: read-out: Plasma clearance Cl (converted)
Procedure: The in vivo pharmacokinetics and oral bioavailability of the compound of the examples were/are investigated in male Swiss mice (fed) following single intravenous (i.v.) bolus and oral (p.o.) administration. For the i.v. and p.o. solution formulations, the compound was/is dissolved in a 20% HP-β-CD solution. The pH of the formulations was/is around pH 4. All i.v. formulations were isotonic.

[2] = tested on: Staphylococcus aureus ATCC 29213; assay: Antibacterial susceptibility testing, IC90 determination (STA); assay type: cell-based; conditions: resazurin; for IC90: Staphylococcus aureus, ATCC29213, Staphylococcus aureus ATCC 29213, broth microdilution, read-out: STA (361.159) IC90; for STA (361.159) IC90: Staphylococcus aureus ATCC 29213, broth microdilution
Procedure, shortened: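 S. aureus ATCC 29213 tested by broth microdilution in Mueller-Hinton broth, 5×10^5 CFU/ml, two-fold compound dilutions typically 63 to 0.49 μM, 1.25% DMSO, 16-20 h at 35° C. Growth read fluorometrically with resazurin (ex 540/em 590 nm); IC90 in μg/ml is 90% growth-inhibitory concentration.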

[3] = Cytotoxicity MTT assay (HELAM); assay type: cell-based, Human; conditions: human, HelaM cells, read-out: HELAM (222.125) CC50
Procedure, shortened: (§1)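 HelaM cells exposed 72 h at 37° C to serial dilutions, typically 25 to 0.8 μM, in 0.5% DMSO. MTT formazan dissolved in 2-propanol, absorbance at 540 nm minus 690 nm; CC50 is concentration halving viability.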

[4] = tested on: S. aureus strain ATCC 29213; assay: In vivo efficacy, peritonitis model of S. aureus infection; conditions: female Swiss albino mice, IP infection, inoculum 8.7 log10, IV, QD, 20% CD + 2H2T, 3 days post-infection
Description: The concept of studying the in vivo effect of an antibacterial compound by treating intraperitoneally infected mice was introduced in 1911 for optochin against pneumococci (Morgenroth and Levy, 1911). The popularity of the model comes from the ease of its use with short-duration experiments, reproducible infections and simple end-points.
Methicillin-sensitive S. aureus strain ATCC 29213 was used to infect female Swiss albino mice. A Brain Heart Infusion (BHI) broth bacterial culture was inoculated the day before infection, incubated at 37° C. overnight and diluted in fresh BHI broth to the desired concentration. Intraperitoneal (i.p.) injection of ˜5×10^9 colony forming units (CFU) was performed in either of the lateral lower quadrants of the abdomen. After inoculation, mice were kept in their cages under daily observation for development of signs of infection or death. For the treatment of mice, the p.o. route was used and each mouse was treated individually by gavage. Example of Cpd No. 48 was formulated as a 20% HP-β-cyclodextrin and example of Cpd No. 38 was formulated as a water/Tween-20 suspension. The parameter used for monitoring the course of infection and the effect of treatment was death or survival of the animals over 3 days post-infection. As death could also be due to toxic side effects, a non-infected control group of 3 mice, treated with the highest dose of the compound tested, was included.

[5] = target: T1, S. aureus ATCC 29213 FabI (Staphylococcus aureus, UniProt Q6GI75); assay: Staphylococcus aureus FabI enzyme inhibition assay; assay type: biochemical; conditions: read-out: FabI (300.235) IC50 (converted)
T1 sequence (Q6GI75 1-256): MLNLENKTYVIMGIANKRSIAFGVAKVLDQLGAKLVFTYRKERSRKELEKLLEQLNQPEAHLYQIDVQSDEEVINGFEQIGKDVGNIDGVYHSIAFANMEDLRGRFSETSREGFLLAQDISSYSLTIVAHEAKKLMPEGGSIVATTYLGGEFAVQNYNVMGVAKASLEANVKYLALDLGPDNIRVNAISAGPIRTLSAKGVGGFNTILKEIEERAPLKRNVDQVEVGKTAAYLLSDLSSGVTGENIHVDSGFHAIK
Procedure, shortened: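 S. aureus ATCC 29213 FabI (50 μg/ml) with 250 μM crotonoyl-CoA and 625 μM NADH in 100 mM NaADA pH 6.5, inhibitor 50–0.39 μM, 30 min at room temperature. Stopped by Tris pH 9.0 shift; NADH at 340 nm versus no-compound and no-enzyme controls; IC50 in μg/ml.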

[6] = Thermodynamic solubility (pH solubility profiling); assay type: physicochemical; conditions: thermodynamic from solid
Procedure: The pH solubility profiling was carried out at ambient temperature for a period of 4 days. A saturation solubility study was carried out in order to determine maximum solubility in a particular buffer solution. The compound was added to respective buffer solution until saturation point is reached. This was followed by shaking the flask for 4 days at ambient temperature. After 4 days, the solutions were filtered and injected on UPLC and the concentration was determined using a generic HPLC method.

Human HelaM cells = assay: Cytotoxicity MTT assay (HELAM); assay type: cell-based; conditions: 72 hours
Procedure, shortened: as §1

[7] = 2.5 mg/kg, 20% HP-β-cyclodextrin
[8] = male, Swiss, plasma, iv, 2.5 mg/kg, 20% HP-β-cyclodextrin
[9] = male, Swiss, plasma, po, 10 mg/kg, 20% HP-β-cyclodextrin
[10] = aqueous buffer, Buffer pH 4, ambient temperature
[11] = aqueous buffer, Buffer pH 7.4, ambient temperature
[12] = aqueous with cosolvent or surfactant or cyclodextrin, 10% HP-β-CD buffer pH 4, ambient temperature
[13] = aqueous with cosolvent or surfactant or cyclodextrin, 10% HP-β-CD buffer pH 7.4, ambient temperature
[14] = aqueous with cosolvent or surfactant or cyclodextrin, 20% HP-β-CD buffer pH 4, ambient temperature
[15] = aqueous with cosolvent or surfactant or cyclodextrin, 20% HP-β-CD buffer pH 7.4, ambient temperature
[16] = pH 2, aqueous with cosolvent or surfactant or cyclodextrin, 20% HP-β-CD 0.01N HCl, ambient temperature
[17] = pH 2, simulated gastric fluid, 0.01N HCl, ambient temperature
[18] = male, Swiss, plasma, po, 5 mg/kg, 20% HP-β-cyclodextrin

SMILES	IC90 (S. aureus) [µg/mL]	IC90 [2] [µg/mL]	IC50 [5] [nM]	solubility thermodynamic at 4 days [6, 10] [µg/mL]	solubility thermodynamic at 4 days [6, 11] [µg/mL]	solubility thermodynamic at 4 days [6, 12] [µg/mL]	solubility thermodynamic at 4 days [6, 13] [µg/mL]	solubility thermodynamic at 4 days [6, 14] [µg/mL]	solubility thermodynamic at 4 days [6, 15] [µg/mL]	solubility thermodynamic at 4 days [6, 16] [µg/mL]	solubility thermodynamic at 4 days [6, 17] [µg/mL]	melting point [°C]	STA + 10% HS (361.169) IC90 (S. aureus) [µg/mL]	STA (361.159) IC90 [2] [µg/mL]	CC50 at 72 h [3] [µg/mL]	HELAM (222.125) CC50 (Human HelaM cells) [µg/mL]	further results
O=C1CNCc2cc(/C=C/C(=O)N3CC4C=C(c5ccccc5)CC4C3)cnc2N1 (stereo not drawn) [Cpd. No. 38]	0.24	< 0.19	1050	–	–	–	–	–	–	–	–	–	–	–	> 10.1	–	Vdz [1, 7]: 3.1 L/kg; AUC(0-inf) [1, 8]: 2000 ng·h/mL; half-life [1, 8]: 1.7 h; clearance [1, 8]: 21.7 mL/min/kg; AUC(0-inf) [1, 9]: 2860 ng·h/mL; Cmax [1, 9]: 665 ng/mL; Tmax [1, 9]: 1.7 h; half-life [1, 9]: 2.2 h; bioavailability ([1]; male, Swiss, plasma, po, p.o. 10 mg/kg vs i.v. 2.5 mg/kg): 36%; % Survival ([4]; 2.5 mpk): 75%; % Survival ([4]; 5 mpk): 100%
O=C1Nc2ncc(/C=C/C(=O)N3CC4C=C(c5nccs5)CC4C3)cc2CN2CCOCC12 (stereo not drawn) [Cpd. No. 74]	< 0.23	< 0.23	992	40 (≈ 86.3 µM)	30 (≈ 64.7 µM)	> 1280	> 1210	> 2360	> 1330	> 2360	670 (≈ 1450 µM)	> 260	–	–	> 11.2	–	–
O=C(Nc1ccc(/C=C/C(=O)N2CC3C=C(c4ccncc4)CC3C2)cn1)c1cccnc1 (stereo not drawn) [compound 9]	0.39	0.34 (≈ 0.777 µM)	–	120 (≈ 274 µM)	< 10	830 (≈ 1900 µM)	> 1120	> 5230	> 4940	> 4930	> 1250	196	–	–	> 11	–	–
O=C1COc2cc(/C=C/C(=O)N3CC4C=C(c5ccccc5)CC4C3)cnc2N1 (stereo not drawn) [compound 37]	0.25	< 0.19	~1160	–	–	–	–	–	–	–	–	> 260	–	–	> 9.73	–	Vdz [1, 7]: 1.5 L/kg; AUC(0-inf) [1, 8]: 7890 ng·h/mL; C0 [1, 8]: 3930 ng/mL; half-life [1, 8]: 3.33 h; clearance [1, 8]: 5.33 mL/min/kg; AUC(0-inf) [1, 18]: 15600 ng·h/mL; Cmax [1, 18]: 2330 ng/mL; Tmax [1, 18]: 1 h; half-life [1, 18]: 3.5 h; bioavailability ([1]; male, Swiss, plasma, po, p.o. 5 mg/kg vs i.v. 2.5 mg/kg): 98%
O=C1CNCc2cc(/C=C/C(=O)N3CC4C=C(c5ccccc5)CC4C3)cnc2N1 (stereo not drawn) [compound 47]	–	–	874	–	–	–	–	–	–	–	–	–	0.26	0.24	–	>10.06	–

Further lines, with some results ahead:

IC90 (S. aureus) [µg/mL]	IC90 [2] [µg/mL]	IC50 [5] [nM]	solubility thermodynamic at 4 days [6, 10] [µg/mL]	solubility thermodynamic at 4 days [6, 11] [µg/mL]	solubility thermodynamic at 4 days [6, 12] [µg/mL]	solubility thermodynamic at 4 days [6, 13] [µg/mL]	solubility thermodynamic at 4 days [6, 14] [µg/mL]	solubility thermodynamic at 4 days [6, 15] [µg/mL]	solubility thermodynamic at 4 days [6, 16] [µg/mL]	solubility thermodynamic at 4 days [6, 17] [µg/mL]	melting point [°C]	STA + 10% HS (361.169) IC90 (S. aureus) [µg/mL]	STA (361.159) IC90 [2] [µg/mL]	SMILES	CC50 at 72 h [3] [µg/mL]	HELAM (222.125) CC50 (Human HelaM cells) [µg/mL]	further results
–	–	2180	–	–	–	–	–	–	–	–	178	3.85	5.50	CN1CC(=O)Nc2ncc(/C=C/C(=O)N3C[C@@H]4CN(c5ccccc5)C[C@@H]4C3)cc2C1 [compound 60]	–	>10.49	–
–	–	1030	–	–	–	–	–	–	–	–	–	0.22	0.15	O=C1Nc2ncc(/C=C/C(=O)N3CC4C=C(c5ccccc5)CC4C3)cc2CN2CCOCC12 (stereo not drawn) [compound 69]	–	8.31	–
< 0.22	0.36 (≈ 0.79 µM)	1320	150 (≈ 329 µM)	10 (≈ 22 µM)	> 5330	> 5110	> 4450	> 4880	> 4490	> 1160	191 to 216	–	–	O=C1Nc2ncc(/C=C/C(=O)N3CC4C=C(c5ccccc5)CC4C3)cc2CN2CCNCC12 (stereo not drawn) [compound 79]	> 11.4	–	–
